Details of data set [1]: method as in doi:10.1016/j.microc.2019.03.022, PMID 28953473. Particulars: reported values; cited from earlier work.
Data set [2] is described as follows: Pharmacokinetic study in healthy volunteers after oral fixed-combination tablet, plasma measured by USA-DMSPE-HPLC-UV. Type of data set: in vivo. Particulars: human; for half-life: read-out: T ½ (converted). How it is done:
First of all, some frozen human plasma samples were allowed to be thawed at room temperature (23 ± 0.5 °C) and afterwards they were placed into centrifuge tubes. Acetonitrile was applied as a deproteinizing agent to precipitate all proteins existing in plasma. In this regard, 1.9 mL of plasma was spiked with 100.0 μL of working standard solutions to get the suitable concentration level of DIC and FEB, then, to all tubes, 2.0 mL acetonitrile was added. All the biological samples were vortexed for 3 min for complete mixing and followed with centrifugation at 5000 rpm for 4 min. For evaporating the acetonitrile content of each real sample, the tube containing the spiked sample was placed under a stream of nitrogen. To adjust the pH of media, 4.0 mL buffer solution at pH 5.0 was added to real sample. Eventually, 5.0 mL of the resultant spiked sample was subjected to the extraction and measurement protocols for further evaluations.
5.0 mL of the prepared spiked human plasma was placed into a centrifuge tube and then 20.0 mg of synthesized hybrid sorbent was added to the tube. For ensuring the complete dispersion of the supermagnetic hybrid sorbent into the solution, ultrasonic irradiation was utilized for 6 min. As the sorbent is dispersed through the sample, the target drugs are adsorbed on the surface of it. Subsequently, an external magnetic field composed of neodymium (Nd), iron (Fe) and boron (B) (0.8 tesla) was applied to separate the hybrid sorbent from media and the free drug sample was removed by a pipette. In order to desorb the target drugs from the extractor, it was washed with 1.5 mL with acetonitrile in three steps (0.5 mL in each step) while ultrasonic irradiation was applied for 3 min. Nd-Fe-B-Nd magnet was used again in this step and then the solution was separated and dried under a stream of nitrogen. After collecting the remaining material, which contains DIC and FEB, was dissolved in 50.0 μL of the mobile phase of HPLC and 20.0 μL of it was injected into the separation column and further measurements were carried out.
The volunteer's blood were collected after 0 to 4 and 8, 12 and 24 h of taking the drug and the samples were transferred to the polypropylene tubes containing ethylenediaminetetraacetic acid and centrifuged to achieve the required human plasma, after that the samples were kept at −18 °C. […] The samples were analyzed by means of the current method and the average concentration of each drug versus time was drawn. In this assessment, some major pharmacokinetic features including Tmax, Cmax, AUC0–t, AUC0–∞, and T½ were calculated and the results were summarized in Table 3.

What is called pKa is the pH at which an ionisable group is half protonated. As usually defined, the Tmax is the time at which the peak concentration occurs. As for `Cc1nc(-c2ccc(OCC(C)C)c(C#N)c2)sc1C(=O)O` [Febuxostat, 2-(3-cyano-4-isobutoxyphenyl)-4-methyl-1,3-thiazole-5-carboxylic acid], in data set [1], the pKa is on record as 3.3. Also, in data set [2], the time of peak concentration (Tmax) was found to be 3.15 ± 0.27 h and the half-life was 6.3 ± 1.5 h.

As for `O=C(O)Cc1ccccc1Nc1c(Cl)cccc1Cl` [Diclofenac, 2-(2,6-dichloranilino)phenylacetic acid], in data set [2], the Tmax is 2.88 ± 0.3 h and the half-life is 5.1 ± 1.1 h.

The record behind these values is PMC9041133 (RSC Advances, 2021).
